US20080039816A1, “Carbohydrate-Encapsulated Quantum Dots for Bilogical Imaging” (The Government of the United States of America as …, priority 2004, published 2008)

Assay: Storage stability of thiol ligands (dimerization to disulfide)
Format: physicochemical
Experimental: In a second, alternative approach for hydrolysis, the debenzylidinated thioester (300 mg) was dissolved in methanol (5 ml). […] Air was bubbled through the solution and the solution was stirred at room temperature and allowed to react for 24 hours. […] The Thomsen-Friedenreich-disulfide of formula VII (130 mg) was then dissolved in distilled water (1 ml) and degassed with argon for 20 minutes. Dithiothreitol (130 mg) was added and the solution allowed to react for 20 minutes. The excess dithiothreitol was then removed by several extractions with ethyl acetate. The residue was then purified by reverse phase flash chromatography on a C-18 column with an aqueous solution of methanol (10%-40% (v/v)) to yield the Thomsen-Friedenreich-thiol of formula VI.
After 30 min, the reaction was carefully neutralized with strongly acidic ion-exchange resin Amberlite®-120, filtered and concentrated. Purification was accomplished on a Strata® SI-1 silica gel cartridge eluting with 20% MeOH in CH2Cl2.

**Q.** With `CC(=O)NC1C(OCCCCCS)OC(CO)C(O)C1OC1OC(CO)C(O)C(O)C1O` (centres unmarked) [formula 3] as the compound, how does the “stability upon standing at room temperature” value (room temperature) read?
**A.** Its value is “oxidizes to the Thomsen-Friedenreich-disulfide of formula VII”.

**Q.** And the “storage stability (dimerization)” value (stored at −20° C. (under argon))?
**A.** The value was “without significant dimerization for weeks”.
